From ChEMBL document CHEMBL3885861, “Open TG-GATES”

Species: Rattus norvegicus
Experiment: Open TG-GATES - Regimen: Single
Assay type: toxicity, organism-based, Sprague-Dawley
Set-up: regimen Single, gender Male, age 6 weeks
Conditions: in vivo, po, 1000 mg/kg, route gavage, dose level High; for APTT / Bas / Eos / Fbg / Hb / Ht / Lym / MCH / MCHC / MCV / Mono / Neu / PT / Plat / RBC / Ret / WBC: tissue Blood; for KIDNEY_L / KIDNEY_R / KIDNEY_TOTAL: tissue Kidney; for LIVER: tissue Liver; for A/G / ALP / ALT / AST / BUN / CRE / Ca / Cl / DBIL / GLC / IP / K / LDH / Na / PL / RALB / TBIL / TC / TG / TP / gamma-GTP: tissue Plasma

With `CCOC(=O)CCC(=O)O[C@H]1[C@H](O[C@@H]2[C@@H](C)[C@H](O[C@H]3C[C@@](C)(OC)[C@@H](O)[C@H](C)O3)[C@@H](C)C(=O)O[C@H](CC)[C@@](C)(O)[C@H](O)[C@@H](C)C(=O)[C@H](C)C[C@@]2(C)O)O[C@H](C)C[C@@H]1N(C)C` [ERYTHROMYCIN ETHYLSUCCINATE] the TERMINAL_BW (3 h) was 217 g, the APTT (3 h) was 22.2 s and the Bas (3 h) was 0%. The Eos (3 h) was 1%, the Fbg (3 h) was 305.8 mg/dL and the Hb (3 h) was 13 g/dL. It also gave a Ht (3 h) of 39.2%, a Lym (3 h) of 74.6% and an MCH (3 h) of 20.5 pg. The MCHC (3 h) was 33.1%, the MCV (3 h) was 61.8 fL and the Mono (3 h) was 2.8%. The Neu (3 h) was 20%, the PT (3 h) was 15.4 s and the Plat (3 h) was 131 x10_4/uL. For the same compound, the RBC (3 h) was 635.4 x10_4/ul, the Ret (3 h) was 8.2% and the WBC (3 h) was 77.4 x10_2/uL. For the same compound, the KIDNEY_L (3 h) was 1 g, the KIDNEY_R (3 h) was 1 g and the KIDNEY_TOTAL (3 h) was 1.9 g. The LIVER (3 h) was 9.6 g, the A/G (3 h) was 1.2 and the ALP (3 h) was 1535.2 IU/L. The ALT (3 h) was 46 IU/L, the AST (3 h) was 76.6 IU/L and the BUN (3 h) was 11.8 mg/dL. The CRE (3 h) was 0.1 mg/dL, the Ca (3 h) was 10.4 mg/dL and the Cl (3 h) was 102.4 meq/L. The DBIL (3 h) was 0.014 mg/dL, the GLC (3 h) was 181.2 mg/dL and the IP (3 h) was 9.7 mg/dL. For the same compound, the K (3 h) was 3.7 meq/L, the LDH (3 h) was 158.4 IU/L and the Na (3 h) was 138 meq/L. For the same compound, the PL (3 h) was 143.8 mg/dL, the RALB (3 h) was 2.9 g/dL and the TBIL (3 h) was 0.05 mg/dL. For the same compound, the TC (3 h) was 74.2 mg/dL, the TG (3 h) was 40 mg/dL and the TP (3 h) was 5.4 g/dL. It also gave a gamma-GTP (3 h) of 1 IU/L, a TERMINAL_BW (6 h) of 219.9 g and an APTT (6 h) of 23.4 s. It also gave a Bas (6 h) of 0%, an Eos (6 h) of 1% and a Fbg (6 h) of 315 mg/dL. For the same compound, the Hb (6 h) was 13.3 g/dL, the Ht (6 h) was 40.7% and the Lym (6 h) was 73.2%. It also gave an MCH (6 h) of 20.6 pg, an MCHC (6 h) of 32.8% and an MCV (6 h) of 62.9 fL. For the same compound, the Mono (6 h) was 3.2%, the Neu (6 h) was 21% and the PT (6 h) was 15.7 s. The Plat (6 h) was 134.9 x10_4/uL, the RBC (6 h) was 647.6 x10_4/ul and the Ret (6 h) was 7.9%. It also gave a WBC (6 h) of 93.4 x10_2/uL, a KIDNEY_L (6 h) of 1 g and a KIDNEY_R (6 h) of 1.1 g. It also gave a KIDNEY_TOTAL (6 h) of 2.1 g, an LIVER (6 h) of 9.1 g and an A/G (6 h) of 1.2. It also gave an ALP (6 h) of 1632.2 IU/L, an ALT (6 h) of 45.8 IU/L and an AST (6 h) of 79.8 IU/L. It also gave a BUN (6 h) of 10.2 mg/dL, a CRE (6 h) of 0.1 mg/dL and a Ca (6 h) of 10.6 mg/dL. It also gave a Cl (6 h) of 104 meq/L, a DBIL (6 h) of 0.012 mg/dL and a GLC (6 h) of 176.8 mg/dL. It also gave an IP (6 h) of 10 mg/dL, a K (6 h) of 4 meq/L and an LDH (6 h) of 180 IU/L. It also gave a Na (6 h) of 138.8 meq/L, a PL (6 h) of 140.4 mg/dL and an RALB (6 h) of 2.9 g/dL. The TBIL (6 h) was 0.046 mg/dL, the TC (6 h) was 68.4 mg/dL and the TG (6 h) was 43.4 mg/dL. The TP (6 h) was 5.4 g/dL, the gamma-GTP (6 h) was 1.4 IU/L and the TERMINAL_BW (9 h) was 213.4 g. For the same compound, the APTT (9 h) was 23.1 s, the Bas (9 h) was 0% and the Eos (9 h) was 1%. The Fbg (9 h) was 304.8 mg/dL, the Hb (9 h) was 13.5 g/dL and the Ht (9 h) was 40.8%. It also gave a Lym (9 h) of 76.2%, an MCH (9 h) of 20.8 pg and an MCHC (9 h) of 33.1%. It also gave an MCV (9 h) of 62.8 fL, a Mono (9 h) of 2.6% and a Neu (9 h) of 19.8%. The PT (9 h) was 15.4 s, the Plat (9 h) was 121.3 x10_4/uL and the RBC (9 h) was 650.4 x10_4/ul. For the same compound, the Ret (9 h) was 7.2%, the WBC (9 h) was 67.2 x10_2/uL and the KIDNEY_L (9 h) was 1 g. It also gave a KIDNEY_R (9 h) of 1 g, a KIDNEY_TOTAL (9 h) of 2 g and an LIVER (9 h) of 8.5 g. The A/G (9 h) was 1.2, the ALP (9 h) was 1688.2 IU/L and the ALT (9 h) was 40.4 IU/L. For the same compound, the AST (9 h) was 73 IU/L, the BUN (9 h) was 9 mg/dL and the CRE (9 h) was 0.1 mg/dL. It also gave a Ca (9 h) of 10.5 mg/dL, a Cl (9 h) of 105.8 meq/L and a DBIL (9 h) of 0 mg/dL. The GLC (9 h) was 173.8 mg/dL, the IP (9 h) was 9.7 mg/dL and the K (9 h) was 4.2 meq/L. The LDH (9 h) was 169.2 IU/L, the Na (9 h) was 139.2 meq/L and the PL (9 h) was 144.4 mg/dL. It also gave an RALB (9 h) of 3 g/dL, a TBIL (9 h) of 0.036 mg/dL and a TC (9 h) of 69.2 mg/dL. For the same compound, the TG (9 h) was 54.4 mg/dL, the TP (9 h) was 5.5 g/dL and the gamma-GTP (9 h) was 1 IU/L. It also gave a TERMINAL_BW (24 h) of 227.7 g, an APTT (24 h) of 20.2 s and a Bas (24 h) of 0%. The Eos (24 h) was 1%, the Fbg (24 h) was 337.4 mg/dL and the Hb (24 h) was 13.9 g/dL. For the same compound, the Ht (24 h) was 41.8%, the Lym (24 h) was 85.4% and the MCH (24 h) was 20.9 pg. It also gave an MCHC (24 h) of 33.2%, an MCV (24 h) of 62.8 fL and a Mono (24 h) of 3%. For the same compound, the Neu (24 h) was 8.8%, the PT (24 h) was 16.3 s and the Plat (24 h) was 125.6 x10_4/uL. The RBC (24 h) was 666 x10_4/ul, the Ret (24 h) was 7.1% and the WBC (24 h) was 93.9 x10_2/uL. For the same compound, the KIDNEY_L (24 h) was 1 g, the KIDNEY_R (24 h) was 1 g and the KIDNEY_TOTAL (24 h) was 2 g. The LIVER (24 h) was 9.4 g, the A/G (24 h) was 1.2 and the ALP (24 h) was 1448.8 IU/L. For the same compound, the ALT (24 h) was 34 IU/L, the AST (24 h) was 66.4 IU/L and the BUN (24 h) was 16.8 mg/dL. It also gave a CRE (24 h) of 0.1 mg/dL, a Ca (24 h) of 10.6 mg/dL and a Cl (24 h) of 107.6 meq/L. It also gave a DBIL (24 h) of 0 mg/dL, a GLC (24 h) of 197.8 mg/dL and an IP (24 h) of 9 mg/dL. It also gave a K (24 h) of 4.3 meq/L, an LDH (24 h) of 209.6 IU/L and a Na (24 h) of 142.8 meq/L. The PL (24 h) was 139.6 mg/dL, the RALB (24 h) was 3 g/dL and the TBIL (24 h) was 0.024 mg/dL. The TC (24 h) was 86.6 mg/dL, the TG (24 h) was 53.2 mg/dL and the TP (24 h) was 5.6 g/dL. It also gave a gamma-GTP (24 h) of 1.2 IU/L.
